Measurements taken from patent publication US9884046B1, “Method of treating lung cancer” (Macau University of Science and Technology, priority 2017, dated 2018).

Tests used:
[1] = system: H358 cells; test: MTT cell viability assay, H358; assay type: cell-based; conditions: Homo sapiens, NCI-H358, H358 (KRAS G12C)
Procedure: (§1) H2122, H460 and H358 cells were purchased from ATCC and cultivated with Roswell Park Memorial Institute (RPMI) 1640 medium supplemented with 10% fetal bovine serum (Gibco, Big Cabin, Oklahoma, Me., USA), 100 U/mL penicillin and 100 μg/mL streptomycin (Gibco, Big Cabin, Oklahoma, Me., USA). All the cells were cultivated at 37° C. with 5% CO2 incubator. Cells were seeded on a 96-well microplate with 3000, 4000 or 5000 cells/well, and were cultured overnight for cell adhesion. Different concentrations of compound 0375-0604 were added to the microplates, and the plates were incubated for 24, 48 or 72 h. Each dosage was repeated as triplicate. 10 μL MTT (5 mg/mL) solution was added to every well. After incubation for 4 h, 100 μL dimethyl sulfoxide (DMSO) was added to each well. After shaking for 15 min, the absorbance of the plate was measured at 570 nm (absorbance) and 650 nm (reference) by a microplate reader (Tecan, Morrisville, N.C., USA).
(§2) The cytotoxicity of compound 0375-0604 was determined by MTT assay. The effect of compound 0375-0604 on three NSCLC cell lines, H2122, H358 and H460 was examined. H2122, H358 and H460 are harboring KRAS-activating mutations. H2122 and H358 cells have mutant KRAS that includes an amino acid substitution from a glycine to a cysteine at codon or position 12 (i.e. mutant KRAS ^G12C). H460 cells have mutant KRAS that includes an amino acid substitution from a glutamine to a histidine at codon or position 61 (i.e. mutant KRAS Q61H).
(§3) Cells were incubated with compound 0375-0604 at different concentrations (0, 25, 50, 100 μM) for 24, 48, and 72 h. As shown in FIGS. 3A-3C, the cell viability of three NSCLC cell lines was decreased by the treatment of compound 0375-0604 in a dose-dependent and time-dependent manner.

[2] = system: phosphorylation of CRAF (p-CRAF); test: Western blot of KRAS downstream signaling; assay type: cell-based; conditions: H2122, H460 and H358 cells, 24, 48 and 72 h, versus untreated cells
Procedure: After treatment with compound 0375-0604 for 24 h, 48 h or 72 h, radioimmunoprecipitation assay (RIPA) lysis buffer which contains protease and phosphatase inhibitors, was added to extract the whole cell protein. Bio-Rad DC™ protein assay kit (Bio-Rad, Philadelphia, Pa., USA) was used to quantify the protein. 30 μg protein lysate were loaded and separated by 10% sodium dodecyl sulfate (SDS)-polyacrylamide gel electrophoresis and transferred to a nitrocellulose (NC) membrane. The membranes were incubated with the primary antibody (1:2000) and then with a fluorescence-conjugated secondary antibody (1:10000). Glyceraldehyde 3-phosphate dehydrogenase (GAPDH) was used as the loading control for normalization. The signal of the membranes was scanned with a LI-COR Odyssey Scanner (Belfast, Me., USA).
Untreated cells were used as control.

[3] = system: H2122 cells; test: MTT cell viability assay, H2122; assay type: cell-based; conditions: Homo sapiens, NCI-H2122, H2122 (KRAS G12C)
Procedure: as §1, §2, §3

[4] = target: KRAS (Homo sapiens, UniProt P01116); test: Bio-layer interferometry, His-KRAS on Ni-NTA biosensors; assay type: binding; conditions: BLI
Procedure: The interaction between KRAS and compound 0375-0604 was determined by bio-layer interferometry using an Octet Red 96 instrument (FortéBio Inc.). Ni-NTA Biosensors tips (FortéBio, Inc., Menlo Park, Calif.) were prewetted with PBS to establish a baseline before immobilization. His-KRAS was then immobilized onto Ni-NTA Biosensors. The experiments comprised five steps: (1) baseline acquisition, (2) KRAS loading onto the sensor, (3) second baseline acquisition, (4) association of compound 0375-0604 for the measurement of kon, and (5) dissociation of compound 0375-0604 for the measurement of koff. Six concentrations of compound 0375-0604 were used for detection. The association and dissociation plot and kinetic constants were obtained with FortéBio data analysis software. Equilibrium dissociation constants (Kd) were calculated in the ratio of koff to kon.
Bio-layer interferometry assay (BLI), a label-free technology, was used to measure the biomolecular interaction between KRAS and compound 0375-0604. In this study, the His-labeled KRAS protein was immobilized on the Ni-NTA (NTA) Biosensors. […] Experimental data for association and dissociation are represented on the left and right side.

[5] = system: H460 cells; test: MTT cell viability assay, H460; assay type: cell-based; conditions: Homo sapiens, NCI-H460, H460 (KRAS Q61H)
Procedure: as §1, §2, §3

[6] = system: GTP-bound KRAS; test: RAS-binding domain pull-down (RBD:PD) assay; assay type: cell-based; conditions: H358 cells, 24 h, 50 and 100 μM
Procedure: RAS activity was detected using the RAS Activation Assay Kit from Upstate-Millipore. The whole cell lysates were incubated with Glutathione S-transferase-[…]-binding domain (GST-RBD) and glutathione beads for 1 h. Agarose beads were pelleted by centrifugation and washed 3 times with Mg^2+ lysis buffer. Agarose beads were re-suspended in loading buffer. Samples were analyzed by the western blotting as previously described and blots probed using anti-KRAS antibody (sc-30, SANTA).
KRAS mutant cells (H358) were treated with compound 0375-0604 for 24 h. After 24 h treatment, cells were collected and determined by a RAS-binding domain pull-down (RBD:PD) assay and immunoblotting with a KRAS-specific antibody.

[7] = system: H358 cells; test: Cell cycle analysis by PI staining and flow cytometry; assay type: cell-based; conditions: H358 cells, 50, 100 μM, 24 h
Procedure: H358 cells were plated with 2.0×10^5 cells/well at a 6-well plate and cultured overnight for attachment. After treatment with compound 0375-0604 at 0, 50, 100 μM for 24 h, all cells were harvested by trypsin, and centrifuged at 1000 rpm, at room temperature for 5 min. Cells pellets were re-suspended in 70% ethanol at 4° C. for 30 min. Cells were centrifuged at 1000 rpm for 5 min to remove all the ethanol. Each cell pellet was re-suspended in 300 μL Propidium iodide (PI) staining solution at 37° C. for 30 min in the dark. The cells were then washed twice with phosphate-buffered saline (PBS). Finally, cells were re-suspended in 300 μL PBS and transferred to the flow cytometer (BD FACS Aria III).
H358 cells were treated with compound 0375-0604 at different concentrations (0, 50, 100 μM) for 24 h, and stained with Propidium iodide (PI). The samples were analyzed by flow cytometry.

KRAS, sequence (P01116 1-188 isoform P01116-2): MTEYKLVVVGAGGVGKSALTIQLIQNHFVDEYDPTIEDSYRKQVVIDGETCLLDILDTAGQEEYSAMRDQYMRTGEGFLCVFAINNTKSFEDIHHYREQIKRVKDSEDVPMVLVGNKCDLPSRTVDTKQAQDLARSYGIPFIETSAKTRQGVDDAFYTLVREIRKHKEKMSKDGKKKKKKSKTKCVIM

IC50 ([1]; 24 h): > 100 µM
IC50 ([1]; 48 h): > 100 µM
IC50 ([1]; 72 h): 63.8 ± 3.89 µM
IC50 ([3]; 24 h): > 100 µM
IC50 ([3]; 48 h): > 100 µM
IC50 ([3]; 72 h): 39.6 ± 3.09 µM
koff ([4]; 1.56-50 μM compound): 2.12E-01 S^−1
kon ([4]; 1.56-50 μM compound): 1.83E+04 M^−1 S^−1
Kd ([4]; calculated as ratio of koff to kon): 11.6 µM
IC50 ([5]; 24 h): > 100 µM
IC50 ([5]; 48 h): 100 ± 13.3 µM
IC50 ([5]; 72 h): 66 ± 11.8 µM
level of GTP-bound KRAS [6]: inhibited
SMILES: Nc1ccc(Sc2nc3ccccc3s2)c(Cl)c1 [compound 0375-0604]
level of phosphorylation of CRAF (p-CRAF) [2]: decreased
percentage of cells in G0/G1 phase [7]: slightly decreased
percentage of cells in G2/M phase [7]: increased
